Reference: article PMC7452424, “Discovery and characterisation of circular bacteriocin plantacyclin B21AG from Lactiplantibacillus plantarum B21” (Heliyon, 2020)

Type: physicochemical
Protocol: The L. plantarum B21 bacteriocin was purified from the CFS by a three-step protocol process consisting of concentration, n-butanol extraction and cation exchange chromatography by Fast Protein Liquid Chromatography (FPLC). All purification steps were carried out at room temperature. L. plantarum B21 was used as an inoculum 2% (v/v) into 165 mL of MRS broth and incubated at 30 °C for 24 h without shaking. The CFS was prepared as previously described. The CFS was concentrated to 70 mL through a 10 kDa polyethersulfone membrane discs (Generon, UK) using an Amicon UF cell (Model 8200, Millipore, USA). The concentrated CFS was subjected to n-butanol extraction according to Abo-Amer with a few modifications. The concentrated L. plantarum B21 CFS was extracted twice in 1:1 volume of water saturated n-butanol and centrifuged at 10,000 × g for 10 min. The n-butanol fraction containing the bacteriocin was freeze dried (FDU-8612, Operon Co. Ltd, Korea) to remove the solvent. The dried n-butanol fraction was redissolved in 20 mM sodium phosphate buffer, pH 6.0. Both the n-butanol and aqueous fractions were examined for antimicrobial activity. […] The concentration of the bacteriocin was measured after each step of protein purification using Pierce™ BCA Protein Assay Kit (Thermo Fisher Scientific, USA) according to manufacturer's instruction.

Substance: cyclo(AAAGALGGTAAIVWIARQFGVHLTTKLTQKALDLLSSGASLGTVAAVILGVTLPGWAV) [plantacyclin B21AG]
- Solubility in butanol: remarkable solubility
